Among the data in ChEMBL document CHEMBL1132539 (J Med Chem, 1999) are Ki values, retold here.

As usually defined, the Ki is a dissociation constant, usually derived from enzyme kinetics or from competition with a known ligand.

Bounds are passed on as bounds.

The target of one experiment is Glutamyl aminopeptidase (Homo sapiens, UniProt Q07075). Briefly: Binding affinity against recombinant Aminopeptidase A.
In the next experiment the target is T1, Aminopeptidase N (Sus scrofa, UniProt P15145).
T1 sequence (P15145 whole entry): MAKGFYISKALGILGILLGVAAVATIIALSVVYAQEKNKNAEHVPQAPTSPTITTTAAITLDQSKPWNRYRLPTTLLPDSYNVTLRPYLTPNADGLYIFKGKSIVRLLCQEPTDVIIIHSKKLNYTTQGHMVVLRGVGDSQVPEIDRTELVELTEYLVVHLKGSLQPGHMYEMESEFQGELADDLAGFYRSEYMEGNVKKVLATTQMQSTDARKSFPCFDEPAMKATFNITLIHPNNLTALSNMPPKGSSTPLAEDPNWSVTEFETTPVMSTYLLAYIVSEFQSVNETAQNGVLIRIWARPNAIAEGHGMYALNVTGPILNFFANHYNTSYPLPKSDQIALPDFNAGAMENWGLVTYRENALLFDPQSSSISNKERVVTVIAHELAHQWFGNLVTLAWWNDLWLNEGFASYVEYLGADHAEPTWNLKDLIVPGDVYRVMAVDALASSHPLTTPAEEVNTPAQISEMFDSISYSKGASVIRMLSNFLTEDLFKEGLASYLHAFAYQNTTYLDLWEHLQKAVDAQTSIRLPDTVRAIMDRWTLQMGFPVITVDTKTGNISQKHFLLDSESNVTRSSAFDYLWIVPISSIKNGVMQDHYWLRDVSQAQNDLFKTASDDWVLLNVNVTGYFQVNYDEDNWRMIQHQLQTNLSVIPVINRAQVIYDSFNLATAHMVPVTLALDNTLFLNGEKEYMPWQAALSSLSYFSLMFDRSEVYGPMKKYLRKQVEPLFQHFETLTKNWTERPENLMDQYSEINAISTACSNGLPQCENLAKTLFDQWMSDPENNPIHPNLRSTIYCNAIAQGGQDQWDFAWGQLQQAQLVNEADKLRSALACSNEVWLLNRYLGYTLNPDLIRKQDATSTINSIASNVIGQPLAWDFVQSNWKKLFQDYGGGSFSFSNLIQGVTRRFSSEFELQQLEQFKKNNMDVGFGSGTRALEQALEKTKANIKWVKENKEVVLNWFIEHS

The target of experiment [1] is T2, Angiotensin-converting enzyme (Rattus norvegicus, UniProt P47820).
T2 sequence (P47820 whole entry): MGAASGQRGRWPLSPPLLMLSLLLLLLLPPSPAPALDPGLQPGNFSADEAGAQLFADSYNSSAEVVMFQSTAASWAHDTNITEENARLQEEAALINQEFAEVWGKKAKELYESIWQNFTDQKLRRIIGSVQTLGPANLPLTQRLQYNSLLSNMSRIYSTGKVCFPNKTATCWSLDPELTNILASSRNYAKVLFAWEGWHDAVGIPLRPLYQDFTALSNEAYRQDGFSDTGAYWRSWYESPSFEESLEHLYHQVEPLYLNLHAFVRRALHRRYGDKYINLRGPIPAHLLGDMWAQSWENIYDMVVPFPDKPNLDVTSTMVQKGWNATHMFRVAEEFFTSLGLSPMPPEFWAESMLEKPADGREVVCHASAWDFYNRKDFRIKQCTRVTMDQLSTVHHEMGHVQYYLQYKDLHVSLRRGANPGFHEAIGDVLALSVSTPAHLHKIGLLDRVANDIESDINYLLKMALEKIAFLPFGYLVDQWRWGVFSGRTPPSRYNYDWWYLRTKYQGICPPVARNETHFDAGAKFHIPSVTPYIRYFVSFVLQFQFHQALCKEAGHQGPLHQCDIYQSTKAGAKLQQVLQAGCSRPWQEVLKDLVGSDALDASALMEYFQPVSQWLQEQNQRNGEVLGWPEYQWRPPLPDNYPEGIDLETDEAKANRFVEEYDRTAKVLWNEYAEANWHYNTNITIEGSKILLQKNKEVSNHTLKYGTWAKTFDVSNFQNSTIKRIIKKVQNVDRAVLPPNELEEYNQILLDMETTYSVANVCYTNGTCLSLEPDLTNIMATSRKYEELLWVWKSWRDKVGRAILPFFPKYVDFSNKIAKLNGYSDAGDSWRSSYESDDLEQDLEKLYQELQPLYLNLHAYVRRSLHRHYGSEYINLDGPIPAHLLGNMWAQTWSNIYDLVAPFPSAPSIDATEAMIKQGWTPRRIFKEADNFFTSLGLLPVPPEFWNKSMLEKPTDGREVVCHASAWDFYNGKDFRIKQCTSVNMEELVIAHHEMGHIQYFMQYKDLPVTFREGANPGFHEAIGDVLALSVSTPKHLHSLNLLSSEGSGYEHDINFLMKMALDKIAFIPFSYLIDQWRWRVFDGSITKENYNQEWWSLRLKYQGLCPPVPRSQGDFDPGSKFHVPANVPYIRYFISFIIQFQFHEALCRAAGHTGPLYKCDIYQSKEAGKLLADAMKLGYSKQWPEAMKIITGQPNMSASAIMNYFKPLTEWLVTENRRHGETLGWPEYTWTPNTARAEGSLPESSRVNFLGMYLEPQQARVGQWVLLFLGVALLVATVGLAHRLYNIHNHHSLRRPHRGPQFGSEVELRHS
Briefly: Binding affinity against Angiotensin I converting enzyme from rat testis.

The target in another experiment is T3, Neprilysin (Oryctolagus cuniculus, UniProt P08049).
T3 sequence (P08049 whole entry): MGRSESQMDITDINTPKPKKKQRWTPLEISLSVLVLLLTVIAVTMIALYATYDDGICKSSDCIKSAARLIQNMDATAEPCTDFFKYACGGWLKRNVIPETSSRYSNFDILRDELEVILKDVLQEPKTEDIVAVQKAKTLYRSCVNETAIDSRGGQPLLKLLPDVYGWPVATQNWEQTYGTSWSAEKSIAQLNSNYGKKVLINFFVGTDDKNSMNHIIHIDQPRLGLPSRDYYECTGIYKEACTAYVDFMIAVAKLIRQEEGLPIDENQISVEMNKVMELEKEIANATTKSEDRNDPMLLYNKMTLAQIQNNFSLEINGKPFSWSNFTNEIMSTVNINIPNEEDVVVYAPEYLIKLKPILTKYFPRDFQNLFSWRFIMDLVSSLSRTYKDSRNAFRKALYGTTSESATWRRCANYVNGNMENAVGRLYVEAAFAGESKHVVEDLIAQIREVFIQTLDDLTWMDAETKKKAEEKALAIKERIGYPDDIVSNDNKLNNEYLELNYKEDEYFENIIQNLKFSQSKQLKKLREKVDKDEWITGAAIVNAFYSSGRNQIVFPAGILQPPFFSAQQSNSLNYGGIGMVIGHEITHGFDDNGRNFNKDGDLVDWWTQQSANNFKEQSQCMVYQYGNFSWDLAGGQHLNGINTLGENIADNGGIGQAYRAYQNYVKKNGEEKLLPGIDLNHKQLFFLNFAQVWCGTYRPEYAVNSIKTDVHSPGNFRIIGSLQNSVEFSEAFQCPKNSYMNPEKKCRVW
Description: Binding affinity against NEP from rabbit kidney(neutral endopeptidase).

Chain of Glutamyl aminopeptidase (Q07075 whole entry): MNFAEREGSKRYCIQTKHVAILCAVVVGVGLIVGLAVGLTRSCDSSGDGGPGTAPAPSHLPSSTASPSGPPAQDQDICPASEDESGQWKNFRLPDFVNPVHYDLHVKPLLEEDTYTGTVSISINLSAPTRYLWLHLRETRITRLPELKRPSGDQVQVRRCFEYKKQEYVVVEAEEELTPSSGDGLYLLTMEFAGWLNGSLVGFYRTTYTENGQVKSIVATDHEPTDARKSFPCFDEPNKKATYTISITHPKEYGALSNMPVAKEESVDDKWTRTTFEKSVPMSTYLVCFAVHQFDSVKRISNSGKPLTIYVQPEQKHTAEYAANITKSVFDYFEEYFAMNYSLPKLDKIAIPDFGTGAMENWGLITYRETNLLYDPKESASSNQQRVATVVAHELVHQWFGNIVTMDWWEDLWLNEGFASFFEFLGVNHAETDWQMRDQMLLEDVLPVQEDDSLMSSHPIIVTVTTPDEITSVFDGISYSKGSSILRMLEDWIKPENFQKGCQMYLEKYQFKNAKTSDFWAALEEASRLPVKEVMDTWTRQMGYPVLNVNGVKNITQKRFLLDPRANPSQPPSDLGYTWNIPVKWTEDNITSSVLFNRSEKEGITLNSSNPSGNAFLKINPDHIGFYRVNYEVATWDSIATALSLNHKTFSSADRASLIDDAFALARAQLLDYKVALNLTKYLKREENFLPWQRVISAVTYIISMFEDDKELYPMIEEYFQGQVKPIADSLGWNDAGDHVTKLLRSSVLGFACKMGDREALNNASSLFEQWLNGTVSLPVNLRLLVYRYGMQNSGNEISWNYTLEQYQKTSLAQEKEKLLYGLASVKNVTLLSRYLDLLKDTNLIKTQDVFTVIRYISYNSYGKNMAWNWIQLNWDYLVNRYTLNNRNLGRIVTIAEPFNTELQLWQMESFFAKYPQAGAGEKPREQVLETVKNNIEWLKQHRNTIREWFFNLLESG
Description for Aminopeptidase N: Binding affinity against aminopeptidase N from pig kidney

On to `N[C@H](CCS(=O)(=O)O)[C@@H](S)C(=O)N[C@@H](Cc1ccc(O)cc1)C(=O)N[C@@H](CC(=O)O)C(=O)O`, for which the Ki turned out to be 4.3 nM on Glutamyl aminopeptidase, 31000 nM at Aminopeptidase N, 1800 nM in experiment [1] and 34 nM at Neprilysin.
For `CC[C@@H](C)[C@H](NC(=O)[C@H](S)[C@H](N)CCC(=O)O)C(=O)N[C@@H](CC(=O)O)C(=O)O`, the Ki at Glutamyl aminopeptidase was 3.56 nM; on Aminopeptidase N, above 10000 nM; in experiment [1] it was 1800 nM; at Neprilysin, 4 nM.
Regarding `CC[C@@H](C)[C@H](NC(=O)[C@H](S)[C@H](N)CCP(=O)(O)O)C(=O)N[C@@H](CC(=O)O)C(=O)O`, the Ki is 12 nM at Glutamyl aminopeptidase, above 10000 nM on Aminopeptidase N, 2200 nM in experiment [1] and 5.4 nM at Neprilysin.
Consider `CC[C@@H](C)[C@H](NC(=O)[C@H](S)[C@H](N)CCS(=O)(=O)O)C(=O)N[C@@H](CC(=O)O)C(=O)O`, for which the inhibition constant Ki was 3.2 nM at Glutamyl aminopeptidase, above 100000 nM at Aminopeptidase N, 1200 nM in experiment [1] and 22 nM on Neprilysin.
